# Assay results published in US20220088115A1, “PHARMACEUTICAL COMPOSITION, COMPRISING INHIBITORY PEPTIDE AGAINST FAS SIGNALING, FOR PREVENTION OR TREATMENT OF OBESITY, FATTY LIVER, OR STEATOHEPATITIS” (SIGNET BIOTECH INC., priority 2018, published 2022).
# What was measured:
# [1] = system: 3T3L1 cell line; test: Cytotoxicity by CCK-8 analysis kit in 3T3L1 cell line; assay type: cell-based, murine; conditions: differentiated 3T3L1 cell lines, 100 μM to 1000 μM, 24 hours
# Description: (§1) The 3T3L1 cell line was cultured in a DMEM culture medium containing 10% FBS, 1% penicillin, 1% streptomycin, and 25 mM glucose. The 3T3L1 cell line was aliquoted into the above DMEM culture solution at a concentration of 2×10^5 cells/ml to induce adipocyte maturation for 3 days, and then replaced with a culture solution containing insulin to induce adipocyte maturation again for 3 days. Thereafter, the 3T3L1 cell line was further cultured in the above DMEM culture solution for 2 days to achieve complete maturation of adipocytes.
# The cytotoxicity experiments of the peptides described in 1. above were performed by a CCK-8 analysis kit (Dojindo Laboratories, Japan). The 3T3L1 cell line was treated with peptides at various concentrations (uM) and cytotoxicity was analyzed after 24 hours.
# [2] = system: 3T3L1 cell line; test: Expression of inflammation-related genes in 3T3L1 cell line treated with FasL and peptide; assay type: cell-based, murine; conditions: differentiated 3T3L1 treated with Fas ligand and FBP-8 in combination
# Description: as §1
# (§2) mRNA was extracted from liver tissues and white adipose tissues using RNAiso (Takara, Japan), and cDNA was synthesized with an iscript cDNA synthesis kit (Bio-Rad Laboratories, USA). Thereafter, a gene expression level was analyzed by the 7500 Fast Real-time PCR system (Applied Biosystems, USA). The expression level of each gene was normalized with the expression level of a GAPDH gene, and then calculated as a relative gene expression level with respect to the control.
# [3] = system: obesity model mice; test: Glucose tolerance test (GTT) and insulin tolerance test (ITT), obesity model mice, intravenous FBP-8; assay type: in vivo, C57BL/6 mice
# Description: (§3) All animal experiments performed for the present invention were approved by the Institutional Animal Care and Use Committee of Hanyang University. […] Thereafter, depending on the experimental group, 60 μg/one time of FBP8 were administered by intravenous injection twice a week for a total of 5 weeks (FIG. 13), or FBP7 was administered by subcutaneous injection twice a day.
# For a glucose intolerance analysis, a dose of 2 g/kg of glucose was injected by intraperitoneal injection into each experimental group maintained in a fasting state for 12 hours, and blood glucose levels were measured after 30, 60 and 120 minutes by Accu-check (Roche, USA).
# Insulin resistance was analyzed by measuring blood glucose levels 30 minutes, 60 minutes and 120 minutes after a dose of 0.75 U/kg of insulin was injected by intraperitoneal injection into each experimental group maintained in a fasting state for 4 hours.
# [4] = system: obesity model mice; test: Blood fatty acid, insulin, triglyceride, ALT and liver triglyceride, obesity model mice, intravenous FBP-8; assay type: in vivo, C57BL/6 mice
# Description: as §3
# (§4) The cytokine levels of serum and tissues were analyzed with an ELISA kit (eBioscience, USA), and the triglyceride levels of liver tissues were confirmed with a triglyceride assay kit (Cayman, USA).
# [5] = system: obesity model mice; test: Daily food intake and body weight change, obesity model mice, intravenous FBP-8; assay type: in vivo, C57BL/6 mice
# Description: as §3
# (§5) Obesity model mice were produced by feeding normal mice a high fat diet for 8 weeks, and FBP-8 was administered by intravenous injection twice a week for a total of 5 weeks (FIG. 13). After five weeks, the obesity model mice were sacrificed to isolate white adipose tissues and liver tissues and analyze the proportion of dead cells by TUNEL staining.
# [6] = system: obesity model mice; test: Gene expression in white adipose and liver tissues, obesity model mice, intravenous FBP-8; assay type: in vivo, C57BL/6 mice
# Description: as §3, §2, §5
# [7] = system: obesity model mice; test: Pro-inflammatory cytokines in blood, obesity model mice, intravenous FBP-8; assay type: in vivo, C57BL/6 mice
# Description: as §3, §4
# [8] = system: 3T3L1 cell line; test: Inflammation-related cytokines in 3T3L1 cell culture solution (ELISA); assay type: cell-based, murine; conditions: 3T3L1 treated with FasL and FBP-8
# Description: as §1, §4
# [9] = system: 3T3L1 cell line; test: Apoptosis level in 3T3L1 cell line treated with FasL and peptide (annexin V flow cytometry); assay type: cell-based, murine; conditions: differentiated 3T3L1 treated with Fas ligand and peptide
# Description: as §1
# The 3T3L1 cell line was treated with a Fas ligand (FasL) at a concentration of 500 ng/ml to induce apoptosis, and FBP signal blocking peptides (FBP-8. FBP-A and FBP-7) and CtrFBP bound to Alexa647 were treated, respectively. After 4 hours of peptide treatment, cells were washed with DPBS and treated with FITC-bound annexin V (BD Pharmingen) to analyze the apoptosis inhibitory effect by a flow cytometer.
# [10] = compared to negative control (CtrFBP)
sequence,measurement,setting,value
YCDEHFCY (Fas binding peptide-8 (FBP-8)),cytotoxicity,[1],little cytotoxicity was observed
same,"expressions of inflammation-related genes Fas, TNF-α, MCP-1, F4/80, IL-6 and iNOS",[2],remarkably reduced
same,blood glucose changes / glucose metabolism in GTT and ITT,[3],improved glucose metabolism
same,reduction of triglyceride (TG) concentration in blood,[4],about 25%
same,reduction of triglyceride (TG) concentration in the liver tissue,[4],about 50%
same,decrease of fatty acid concentration in blood,[4]; [10],about 20%
same,decrease of insulin concentration in blood,[4]; [10],about 20%
same,reduction of blood alanine aminotransferase (ALT) level,[4]; [10],≥ 30%
same,daily food intake,[5],no significant change
same,body weight gain,[5]; [10],slower
same,expression level of CD206 (anti-inflammatory macrophage marker) in liver tissues,[6],no significant change
same,expression levels of F480 and CD11c (pro-inflammatory macrophage markers) in white adipose tissue,[6]; [10],significantly reduced
same,expression levels of F480 and CD11c in liver tissues,[6]; [10],decreased
same,"expression levels of inflammation-related genes Fas, TNF-α, MCP-1 and IL-6 in liver tissues",[6]; [10],significantly reduced
same,"expression of inflammation-related genes Fas, TNF-α, MCP-1 and IL-6 in white adipose tissues",[6]; [10],reduced
same,reduction of stearoyl-CoA desaturase (SCD-1) expression level in liver tissues,[6]; [10],about 30+5.32%
same,concentrations of IL-6 and MCP-1 in blood,[7],decrease
same,concentrations of IL-6 and MCP-1 in the cell culture solution,[8],reduces
same,apoptosis level,[9],14±2.98%
